Experimental data as given in patent US9744177B2, “Treatment of male androgen deficiency symptoms or diseases with sex steroid precursor combined with SERM” (ENDORECHERCHE, INC., priority 2014, dated 2017).
Entries after “also recorded” stand apart in the source; their conditions may differ. Counter-ions that a name gives are not always drawn. Like-named read-outs stand apart in the source and are kept apart here.

How the values were obtained:
[1] = test system: ovariectomized female rats; assay: 26-week treatment of ovariectomized female rats: lumbar spine BMD, total fat, cholesterol, ALP (Example 3, experiment 2); assay type: in vivo, Sprague-Dawley rats; conditions: OVX rats, 26 weeks, serum
Protocol: Ten to twelve week-old female Sprague-Dawley rats (Crl:CD(SD)Br) (Charles River Laboratory, St-Constant, Canada) weighing approximately 220-270 g at start of treatment were used. The animals were acclimatized to the environmental conditions (temperature: 22±3° C.; humidity: 50±20%; 12-h light-12-h dark cycles, lights on at 07:15 h) for at least 1 week before starting the experiments. The animals were housed individually and were allowed free access to tap water and a pelleted certified rodent feed (Lab Diet 5002, Ralston Purina, St-Louis, Mo.). […]
(§1) After 3 months (experiment 1) or 26 weeks (experiment 2) of treatment, individual rats under Isoflurane anesthesia had their whole body skeleton and lumbar spine scanned using dual energy x-ray absorptiometry (DEXA; QDR 4500A, Hologic, Waltham, Mass.) and a Regional High Resolution Scan software. The bone mineral density (BMD) of the lumbar spine (vertebrae L2 to L4) and the total body composition (fat percentage) were determined.
After 3 months (experiment 1) or 26 weeks (experiment 2) of treatment, blood samples were collected at the jugular vein from overnight fasted animals (under Isoflurane anesthesia). […] Serum cholesterol levels and alkaline phospatase activity (ALP) were determined using the Boehringer Mannheim Diagnostic Hitachi 911 Analyzer (Boehringer Mannheim Diagnostic Laboratory Systems).
Data are expressed as means±SEM. […]

[2] = test system: estrone-stimulated uterine weight; assay: Antiestrogenic activity: estrone-stimulated uterine weight in ovariectomized mice; assay type: in vivo, BALB/c mice; conditions: OVX mice + estrone; any dose used (1, 3 or 10 μg)
Protocol: (§2) Female BALB/c mice (BALB/cAnNCrlBR) weighing 18-20 g were obtained from Charles-River, Inc. (St-Constant, Quebec, Canada) and housed 5 per cage in a temperature (23±1° C.)- and light (12 h light/day, lights on at 7:15)-controlled environment. The mice were fed rodent chow and tap water ad libitum. The animals were ovariectomized (OVX) under Isoflurane anesthesia via bilateral flank incisions and randomly assigned to groups of 10 animals. Ten mice were kept intact as controls.
(§3) In the second experiment (Table 4), TSE 424 was administered orally by gavage once daily at doses of 1, 3, 10 or 30 μg/animal for 9 days, starting 2 days after ovariectomy. In both experiments, to evaluate the antiestrogenic activity, treatment with estrone (E1, 0.06 μg, s.c. injection, twice daily) was started 5 days post-ovariectomy and was administered for a 6 day-period. Compounds were dissolved in ethanol (4% final concentration) and administered in 0.4% methylcellulose. Mice in the intact and OVX control groups received the vehicle alone (4% ETOH-0.4% methylcellulose) during the 9-day period. The animals were killed by exsanguination at the abdominal aorta on the 11th morning following ovariectomy. The uteri and vagina were rapidly dissected, weighed, and kept in 10% buffered formalin for further histologic examination.

ovariectomized mice = assay: Estrogenic activity: uterine and vaginal weight in ovariectomized mice, compounds alone; assay type: in vivo, BALB/c mice; conditions: OVX mice, no estrone
Protocol: as §2, §3

[3] = female, Long-Evans, rat, in vivo, po, 20 mg/kg
[4] = test system: biochemical parameters of bone metabolism; assay: Treatment of rats with DHEA and EM-800 alone or in combination: biochemical parameters of bone metabolism, serum lipids; assay type: in vivo; conditions: rat; 9 months; DHEA 10 mg percutaneously, EM-800 75 μg orally, once daily (FIG. 10)
Text: Data are expressed as the means±SEM. **: p<0.01 experimental versus respective control.
It is thus important to analyze the changes in biochemical parameters of bone metabolism induced by various compounds and treatments in order to gain a better knowledge of their action (Table 2).
It is particularly important to indicate that the combination of DHEA and acolbifene exerted unexpected beneficial effects on important biochemical parameters of bone metabolism. […] Moreover, no effect of DHEA could be detected on daily urinary calcium or phosphorus excretion (Luo, Sourla et al. 1997). EM-800 (prodrug of acolbifene free salt) decreased the urinary hydroxyproline/creatinine ratio by 48% while, similarly to DHEA, no effect of EM 800 (prodrug of acolbifene, free salt) was seen on urinary calcium or phosphorus excretion. EM-800, moreover, had no effect on serum alkaline phosphatase activity, a marker of bone formation while DHEA increased the value of the parameter by about 75% (Luo, Sourla et al. 1997).

ovariectomized rats = assay: 12-month treatment of ovariectomized rats with DHEA alone or with Flutamide or EM-800: bone histomorphometry, bone markers, serum lipids; assay type: in vivo, rat; conditions: OVX rats
[5] = test system: ovariectomized female rats; assay: 5-week treatment of ovariectomized female rats with SERMs alone or with DHEA: BMD (Example 4); assay type: in vivo, Sprague-Dawley rats; conditions: OVX rats, 5 weeks; SERMs 2.5 mg/kg oral, DHEA 80 mg/kg topical
Protocol: (§4) Ten to twelve week-old female Sprague-Dawley rats (Crl:CD(SD)Br) (Charles River Laboratory, St-Constant, Canada) weighing approximately 220-270 g at start of treatment were used. The animals were acclimatized to the environmental conditions (temperature: 22±3° C.; humidity: 50±20%; 12-h light-12-h dark cycles, lights on at 07:15 h) for at least 1 week before starting the experiments. The animals were housed individually and were allowed free access to tap water and a pelleted certified rodent feed (Lab Diet 5002, Ralston Purina, St-Louis, Mo.). Experiments were conducted in an animal facility approved by the Canadian Council on Animal Care (CCAC) and the Association for Assessment and Accreditation of Laboratory Animal Care (AAALAC) in accordance with the CCAC Guide for Care and Use of Experimental Animals.
(§5) On Day 1 of the study, the animals of the appropriate groups were bilaterally ovariectomized (OVX) under isoflurane anesthesia. The DHEA was applied topically on the dorsal skin as a solution in 50% ethanol-50% propylene glycol while the tested SERMs were administered as suspension in 0.4% methylcellulose by oral gavage. Treatments were initiated on Day 2 of the study and were performed once daily during 5 weeks.
After 5 weeks of treatment, individual rats under Isoflurane anesthesia had their lumbar spine, femur and tibia scanned using dual energy x-ray absorptiometry (DEXA; QDR 4500A, Hologic, Waltham, Mass.) and a Regional High Resolution Scan software. The bone mineral density (BMD) of the lumbar spine (vertebrae L2 to L4), distal femoral metaphysis (DFM) and proximal tibial metaphysis (PTM) were determined.
Data are expressed as means±SEM. Statistical significance was determined according to the multiple-range test of Duncan-Kramer {Kramer, 1956 #37421.

[6] = 50 mg daily, 6 months, cited from earlier work
[7] = 6 months; cited from earlier work
[8] = test system: ovariectomized female rats; assay: 3-month treatment of ovariectomized female rats: lumbar spine BMD, total fat, cholesterol, ALP (Example 3, experiment 1); assay type: in vivo, Sprague-Dawley rats; conditions: OVX rats, 3 months, serum
Protocol: as §4
as §5, with “while the other tested compounds” for “while the tested SERMs”, “other tested compounds were administered” for “the tested SERMs were administered”, “daily during 3 months.” for “daily during 5 weeks.”
as §1
After 3 months (experiment 1) or 26 weeks (experiment 2) of treatment, blood samples were collected at the jugular vein from overnight fasted animals (under Isoflurane anesthesia). Samples were processed for serum preparation and frozen at −80° C. until assay. Serum cholesterol levels and alkaline phospatase activity (ALP) were determined using the Boehringer Mannheim Diagnostic Hitachi 911 Analyzer (Boehringer Mannheim Diagnostic Laboratory Systems).
Data are expressed as means±SEM. Statistical significance was determined according to the multiple-range test of Duncan-Kramer (Kramer 1956).

serum testosterone = assay: Serum testosterone in male cynomolgus monkeys dosed orally; assay type: in vivo; conditions: oral 2.5, 10 or 40 mg acolbifene/day, 13 weeks
Protocol: FIG. 13: Male cynomolgus monkeys were dosed orally with 2.5, 10 or 40 mg acolbifene/day for 13 weeks. Control monkeys received vehicle alone (0.4% methylcellulose). […] Results are expressed as the mean±SEM of 4 monkeys per group. P values (versus control) were calculated using a two-sided t test assuming equality of variances. FIG. 14: […] Control monkeys received vehicle alone (0.4% methylcellulose). […] P values (versus control) were calculated using a two-sided t test assuming equality of variances.

serum E2 levels = assay: Serum E2 in a premenopausal person with advanced breast cancer on acolbifene; assay type: in vivo, human; conditions: 20 mg daily oral, 6 months, from 222 before
uterine epithelial cells = assay: Thickness of uterine (endometrial) epithelial cells in ovariectomized nude mice; conditions: no estrone, 200 μg daily
[9] = test system: human ZR-75-1 breast tumors; assay: ZR-75-1 tumor growth in ovariectomized nude mice in absence of estrone (agonistic effects); conditions: no estrone, 200 μg daily, 161 days, hydrochloride
[10] = test system: human breast cancer MCF-7 cells; assay: Proliferation of MCF-7 cells (DNA content); assay type: cell-based; conditions: Experiment 2
Protocol: The MCF-7 human breast adenocarcinoma cell line was derived from the pleural effusion of a patient. MCF-7 cells were used between passages 148 and 165 and subcultured weekly.
Cells in their late logarithmic growth phase were harvested with 0.1% pancreatin (Sigma) and resuspended in the appropriate medium containing 50 ng bovine insulin/mL and 5% (v/v) FBS treated twice with dextran-coated charcoal to remove endogenous steroids. Cells were plated in 24-well Falcon plastic culture plates (2 Cm^2/well) at the indicated density and allowed to adhere to the surface of the plates for 72 h. Thereafter, medium was replaced with fresh medium containing the indicated concentrations of compounds diluted from 1000× stock solutions in 99% redistilled ethanol in the presence or absence of E2. Control cells received only the ethanolic vehicle (0.1% EtOH, v/v). Cells were incubated for the specified time intervals with medium changes at 2- or 3-day intervals. Cell number was determined by measurement of DNA content.
Dose-response curves as well IC50 values were calculated using a weighted iterative nonlinear least-squares regression. All results are expressed as means±SEM.

[11] = patients treated with testosterone; cited from earlier work
[12] = men with serum testosterone <3.0 ng/mL after coronography; control group 15.4%; cited from earlier work

**Q.** With Oc1ccc2c(c1)CC[C@H](c1ccccc1)[C@@H]2c1ccc(OCCN2CCCC2)cc1 (racemic) [lasofoxifene, (−)-cis-(5R,6S)-6-phenyl-5-[4-(2-pyrrolidin-1-ylethoxy)phenyl]-5,6,7,8-tetrahydronaphthalen-2-ol, D-(−)-tartrate salt] as the molecule, how does the CHOLESTEROL [1] read?
**A.** 0.60 ± 0.02 mmol/L

**Q.** With Oc1ccc2c(c1)CC[C@@H](c1ccccc1)[C@H]2c1ccc(OCCN2CCCC2)cc1 (single isomer, unassigned) [inactive enantiomer of lasofoxifene] as the molecule, how does the “inhibitory effect on estrone-stimulated uterine weight” value [2] read?
**A.** no inhibitory effect

**Q.** And the “stimulatory effect on uterine weight” value (ovariectomized mice; daily oral 1 μg and 10 μg)?
**A.** no stimulatory effect

**Q.** What about the “stimulatory effect on vaginal weight” value (ovariectomized mice; daily oral 1 μg and 10 μg) of the same molecule?
**A.** no stimulatory effect

**Q.** Which “total drug-derived radioactivity in the brain, detection” value [3] does the source give for CC1=C(c2ccc(OC(=O)C(C)(C)C)cc2)[C@H](c2ccc(OCCN3CCCCC3)cc2)Oc2cc(OC(=O)C(C)(C)C)ccc21 [14C-EM-800] here?
**A.** not detected after 12 hr post dose

**Q.** What does the source list for C[C@]12CC[C@H](O)CC1=CC[C@@H]1[C@@H]2CC[C@]2(C)C(=O)CC[C@@H]12 [DHEA, dehydroepiandrosterone]?
**A.** effect on serum cholesterol [4]: no effect; effect on serum triglycerides [4]: inhibitory effect; increase in trabecular bone number compared to ovariectomized controls (ovariectomized rats): 137%; reduction (inhibitory effect) of serum cholesterol (ovariectomized rats): 22%; trabecular bone number (ovariectomized rats): 1.27±0.1 per mm; trabecular bone volume of the tibia (ovariectomized rats): 11.9±0.6%; Alkaline phosphatase (ovariectomized rats; serum): 201±25 IU/L; CHOLESTEROL (ovariectomized rats; serum): 1.78 ± 0.16 mmol/L; Triglycerides (ovariectomized rats; serum): 0.8 ± 0.1 mmol/L; OH-proline/creatinine (ovariectomized rats; urine): 7.3±1.0 μmol/mmol; DISTAL FEMORAL METAPHYSIS (DFM) BMD [5]: 0.2934 ± 0.0046 g/cm^2; DISTAL FEMORAL METAPHYSIS (DFM) Prevention of Bone Loss [5]: 71%; LUMBAR SPINE (L2-L4) BMD [5]: 0.2144 ± 0.0028 g/cm^2; LUMBAR SPINE (L2-L4) Prevention of Bone Loss [5]: 44%; PROXIMAL TIBIAL METAPHYSIS (PFM) BMD [5]: 0.2672 ± 0.0041 g/cm^2; PROXIMAL TIBIAL METAPHYSIS (PFM) Prevention of Bone Loss [5]: 42%; decrease of responsiveness of serum insulin to the glucose tolerance test [6]: 13%; improvement in the insulin sensitivity index [6]: 34%; decrease of abdominal subcutaneous fat ([6]; both women and men): 6%; decrease of abdominal visceral fat ([6]; men 65 to 78 years): 7.4%; decrease of abdominal visceral fat ([6]; women 65 to 78 years): 10.2%; decrease of total body fat mass [7]: 1.4 kg; increase of fat-free mass [7]: 0.9 kg

**Q.** What does the source list for CC1=C(c2ccc(O)cc2)[C@H](c2ccc(OCCN3CCCCC3)cc2)Oc2cc(O)ccc21.Cl [EM-652.HCl, (S)-(+)-7-hydroxy-3-(4′-hydroxyphenyl)-4-methyl-2-(4″-(2′″-piperidinoethoxy)phenyl)-2H-1-benzopyran hydrochloride]?
**A.** ALP [8]: 91 ± 6 IU/L; CHOLESTEROL [8]: 0.87 ± 0.04 mmol/L; CHOLESTEROL [1]: 0.98 ± 0.06 mmol/L; serum testosterone levels (FIGS. 13 and 14) (serum testosterone): increased serum testosterone levels; serum E2 levels (serum E2 levels): 2030 pg/mL; height of uterine epithelial cells, % of the OVX control group value (uterine epithelial cells): 114%; effect of compound alone on ZR-75-1 tumor size compared to OVX control [9]: did not exert any stimulatory effect; also recorded: did not significantly change; effect of compound alone on ZR-75-1 tumor size compared to OVX control ([9]; listed as Acolbifene): no effect on tumor growth

**Q.** Which results are given for Oc1ccc2c(c1)CC[C@H](c1ccccc1)[C@@H]2c1ccc(OCCN2CCCC2)cc1 [lasofoxifene (free base)]?
**A.** stimulation of uterine weight (ovariectomized mice; 10 μg daily oral): 93%; stimulation of vaginal weight (ovariectomized mice; 10 μg daily oral): 73%; Stimulation of DNA by tested compounds [10]: N.S.

**Q.** Which results are given for C[C@]12CC[C@H]3[C@@H](CCC4=CC(=O)CC[C@@]43C)[C@@H]1CC[C@@H]2O [testosterone]?
**A.** decrease in mortality risk [11]: 39%; lower incidence of heart disease [11]: 20%; rate of deaths at 3 years [12]: 18.5%
